What was measured:
Assay type in all cases: biochemical
aminoacylase, Grade I = target: T1, aminoacylase, Grade I (Sus scrofa, UniProt P37111); test: Determination of hydrolytic enzymes: aminoacylase Grade I; settings: Final Enzyme Activity 3,000 I.U., pH 7.0, 25° C., ex 540 nm, em 595 nm
T1 sequence (P37111 2-407 limits assumed): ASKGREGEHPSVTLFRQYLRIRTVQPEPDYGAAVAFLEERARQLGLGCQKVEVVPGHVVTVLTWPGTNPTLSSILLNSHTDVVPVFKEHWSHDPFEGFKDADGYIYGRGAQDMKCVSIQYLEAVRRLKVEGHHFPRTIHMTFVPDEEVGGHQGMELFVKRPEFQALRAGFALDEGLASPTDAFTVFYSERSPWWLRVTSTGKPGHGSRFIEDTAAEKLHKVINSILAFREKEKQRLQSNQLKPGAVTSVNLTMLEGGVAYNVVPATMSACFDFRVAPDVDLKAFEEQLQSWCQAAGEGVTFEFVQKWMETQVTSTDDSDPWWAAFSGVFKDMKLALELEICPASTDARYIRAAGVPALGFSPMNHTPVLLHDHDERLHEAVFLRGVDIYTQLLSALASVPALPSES
Description: (§1) Test solutions were prepared with the following: 50 μl of substrate (1 mg/μl methanol), […] of 0.05 molar potassium phosphate buffer at the indicated pH (near the optimum for each enzyme) and 10 μl of enzyme. Enzymes to be determined included carboxylesterase, Type I (pH 7.8) and Type II (pH 6.0), aminoacylase, Grade I (pH 7.0), and trypsin, Type I and III (pH 7.8). Sample preparations and testing were done in an area protected from light. The enzyme solutions were kept at 0° C. prior to use, and assays were run at 25° C. with fluorescence measured at an excitation of 540 nm and an emission of 595 nm.

carboxylesterase, Type I = test: Determination of hydrolytic enzymes: carboxylesterase Type I; settings: pH 7.8, 25° C., ex 540 nm, em 595 nm
Description: as §1

trypsin, Type III = target: T2, trypsin, Type III (Bos taurus, UniProt P00760); test: Determination of hydrolytic enzymes: trypsin Type III; settings: pH 7.8, 25° C., ex 540 nm, em 595 nm
T2 sequence (P00760 24-246): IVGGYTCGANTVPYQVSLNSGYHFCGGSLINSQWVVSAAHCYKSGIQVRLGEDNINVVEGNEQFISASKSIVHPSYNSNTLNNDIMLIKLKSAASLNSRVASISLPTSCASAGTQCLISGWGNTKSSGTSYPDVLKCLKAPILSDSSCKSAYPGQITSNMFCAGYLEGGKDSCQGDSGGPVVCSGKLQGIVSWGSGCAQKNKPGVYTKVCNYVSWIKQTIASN
Description: as §1

trypsin, Type I = target: T3, trypsin, Type I (Bos taurus, UniProt P00760); test: Determination of hydrolytic enzymes: trypsin Type I; settings: pH 7.8, 25° C., ex 540 nm, em 595 nm
T3 sequence (P00760 24-246): T2 sequence (P00760 24-246)
Description: as §1

[1] = system: carboxylesterase, Type II; test: Determination of hydrolytic enzymes: carboxylesterase Type II; settings: Final Enzyme Activity 15 I.U., pH 6.0, 25° C., ex 540 nm, em 595 nm
Description: as §1

`CC(=O)Nc1ccc2c3c(cccc13)C(=O)C=C2` [Example 5] was tested, and the “Relative Fluorescence (minus control with no enzyme)” value (aminoacylase, Grade I; 0 Min) was 1.5, the “Relative Fluorescence (minus control with no enzyme)” value (aminoacylase, Grade I; 10 Min) was 2.0 and the “Relative Fluorescence (minus control with no enzyme)” value (aminoacylase, Grade I; 15 Min) was 2.1. For the same compound, the “Relative Fluorescence (minus control with no enzyme)” value (aminoacylase, Grade I; 30 Min) was 2.3, the “Relative Fluorescence (minus control with no enzyme)” value (carboxylesterase, Type I; Final Enzyme Activity 9.6 I.U., 0 Min) was 2.7 and the “Relative Fluorescence (minus control with no enzyme)” value (carboxylesterase, Type I; Final Enzyme Activity 9.6 I.U., 10 Min) was 3.6. The “Relative Fluorescence (minus control with no enzyme)” value (carboxylesterase, Type I; Final Enzyme Activity 9.6 I.U., 15 Min) was 4.1, the “Relative Fluorescence (minus control with no enzyme)” value (carboxylesterase, Type I; Final Enzyme Activity 9.6 I.U., 30 Min) was 4.4 and the “Relative Fluorescence (minus control with no enzyme)” value (carboxylesterase, Type I; Final Enzyme Activity 96 I.U., 0 Min) was 3.0. For the same compound, the “Relative Fluorescence (minus control with no enzyme)” value (carboxylesterase, Type I; Final Enzyme Activity 96 I.U., 10 Min) was 6.1, the “Relative Fluorescence (minus control with no enzyme)” value (carboxylesterase, Type I; Final Enzyme Activity 96 I.U., 15 Min) was 7.9 and the “Relative Fluorescence (minus control with no enzyme)” value (carboxylesterase, Type I; Final Enzyme Activity 96 I.U., 30 Min) was 12.5. The “Relative Fluorescence (minus control with no enzyme)” value (trypsin, Type III; Final Enzyme Activity 6,000 I.U., 0 Min) was 2.7, the “Relative Fluorescence (minus control with no enzyme)” value (trypsin, Type III; Final Enzyme Activity 6,000 I.U., 10 Min) was 2.8 and the “Relative Fluorescence (minus control with no enzyme)” value (trypsin, Type III; Final Enzyme Activity 6,000 I.U., 15 Min) was 3.0. For the same compound, the “Relative Fluorescence (minus control with no enzyme)” value (trypsin, Type III; Final Enzyme Activity 6,000 I.U., 30 Min) was 3.6, the “Relative Fluorescence (minus control with no enzyme)” value (trypsin, Type III; Final Enzyme Activity 60,000 I.U., 0 Min) was 2.2 and the “Relative Fluorescence (minus control with no enzyme)” value (trypsin, Type III; Final Enzyme Activity 60,000 I.U., 10 Min) was 3.5. The “Relative Fluorescence (minus control with no enzyme)” value (trypsin, Type III; Final Enzyme Activity 60,000 I.U., 15 Min) was 3.4, the “Relative Fluorescence (minus control with no enzyme)” value (trypsin, Type III; Final Enzyme Activity 60,000 I.U., 30 Min) was 4.3 and the “Relative Fluorescence (minus control with no enzyme)” value (trypsin, Type I; Final Enzyme Activity 5,000 I.U., 0 Min) was 0. For the same compound, the “Relative Fluorescence (minus control with no enzyme)” value (trypsin, Type I; Final Enzyme Activity 5,000 I.U., 10 Min) was 0.5, the “Relative Fluorescence (minus control with no enzyme)” value (trypsin, Type I; Final Enzyme Activity 5,000 I.U., 15 Min) was 0.6 and the “Relative Fluorescence (minus control with no enzyme)” value (trypsin, Type I; Final Enzyme Activity 5,000 I.U., 30 Min) was 0.8. The “Relative Fluorescence (minus control with no enzyme)” value (trypsin, Type I; Final Enzyme Activity 50,000 I.U., 0 Min) was 0, the “Relative Fluorescence (minus control with no enzyme)” value (trypsin, Type I; Final Enzyme Activity 50,000 I.U., 10 Min) was 0.7 and the “Relative Fluorescence (minus control with no enzyme)” value (trypsin, Type I; Final Enzyme Activity 50,000 I.U., 15 Min) was 0.9. For the same compound, the “Relative Fluorescence (minus control with no enzyme)” value (trypsin, Type I; Final Enzyme Activity 50,000 I.U., 30 Min) was 1.5, the “Relative Fluorescence (minus control with no enzyme)” value ([1]; 0 Min) was 2.0 and the “Relative Fluorescence (minus control with no enzyme)” value ([1]; 10 Min) was 5.4. The “Relative Fluorescence (minus control with no enzyme)” value ([1]; 15 Min) was 8.0 and the “Relative Fluorescence (minus control with no enzyme)” value ([1]; 30 Min) was 15.8.

From patent publication US4812409A, “Hydrolyzable fluorescent substrates and analytical determinations using same” (Eastman Kodak Company, priority 1986, dated 1989)
